Patent US9822414B2, “In vitro method for predicting in vivo genotoxicity of chemical compounds” (priority 2011, dated 2017)
Where “and” joins values, the source holds several entries; their conditions need not be identical. Identical values can stand only once. Entries after “also recorded” stand apart in the source; their conditions may differ. Like-named read-outs stand apart in the source and are kept apart here.

Tests used:
[1] = tested on: rodents; conditions: cited from earlier work
[2] = tested on: HepG2 cell
[3] = tested on: conventional in vitro genotoxicity assays; conditions: cited from earlier work
[4] = tested on: HepG2 cell; test: Class prediction of in vivo genotoxicity by the method of the invention (Ames stratification plus three-gene expression in HepG2); conditions: 62 compounds, three replicates, HepG2 24 h
[5] = tested on: PWWP2B; test: Gene expression of PWWP2B in HepG2 cells exposed to compound (microarray, log2 treatment:control ratio); assay type: cell-based, human
[6] = tested on: Salmonella typhimurium; conditions: cited from earlier work
[7] = tested on: LOC100505880; test: Gene expression of LOC100131914/LOC100505880 in HepG2 cells exposed to compound (microarray, log2 treatment:control ratio); assay type: cell-based, human
[8] = tested on: NR0B2; test: Gene expression of NR0B2 in HepG2 cells exposed to compound (microarray, log2 treatment:control ratio); assay type: cell-based, human
[9] = positive when at least one in vivo assay (MN, CA) positive, equivocal considered positive
[10] = HepG2, Ames positive compounds, per replicate, reference value −0.054
[11] = HepG2 cells, 24 h exposure, Ames positive compounds, one line per replicate of triplicate experiments
[12] = HepG2, Ames positive compounds, per replicate, reference value −0.071
[13] = HepG2, Ames positive compounds, per replicate, reference value −0.099
[14] = HepG2 cells, 24 h exposure, Ames positive compounds, one line per replicate of triplicate experiments, listed as Fu

CC(=O)Nc1ccc2c(c1)Cc1ccccc1-2 [2AAF]
Standard (in vivo genotoxicity designation) ([1]; in vivo): GTX
In vivo GTX [1, 9]: +
Average result over three measurements [2]: GTX
In vitro GTX [3]: +
Prediction (class prediction results using the method of the invention) [4]: GTX+
Log2 treatment: control ratio PWWP2B [5]: −0.045 and −0.14 and 0.042
Ames [6]: +

ClCc1ccccn1 [2CMP]
Standard (in vivo genotoxicity designation) ([1]; in vivo): NGTX
At least ⅔ genes +? [2]: NGTX
Average result over three measurements [2]: NGTX
LOC100505880 above or below the reference value [7]: − (minus sign indicates a value below the reference value)
In vitro GTX [3]: +
Prediction (class prediction results using the method of the invention) [4]: NGTX
Log2 treatment: control ratio PWWP2B [5]: −0.214 and −0.23 and −0.031
Ames [6]: +
NR0B2 above or below the reference value [8]: − (minus sign indicates a value below the reference value)

CC(=O)Nc1cccc2c1-c1ccccc1C2 [4AAF]
Standard (in vivo genotoxicity designation) ([1]; in vivo): NGTX
Average result over three measurements [2]: NGTX
LOC100505880 above or below the reference value [7]: − (minus sign indicates a value below the reference value)
Log2 treatment: control ratio LOC100505880 [7]: −0.217 and −0.295 and −0.101
In vitro GTX [3]: +
Prediction (class prediction results using the method of the invention) [4]: NGTX+
Ames [6]: +
Log2 treatment: control ratio NR0B2 [8]: −0.04 and −0.278 and −0.088

Oc1cccc2cccnc12 [8HQ]
Standard (in vivo genotoxicity designation) ([1]; in vivo): NGTX
Average result over three measurements [2]: GTX
In vitro GTX [3]: +
Prediction (class prediction results using the method of the invention) [4]: GTX+
Log2 treatment: control ratio PWWP2B [5]: 0.014 and −0.165 and −0.069
Ames [6]: +

Nc1ccc(-c2ccccc2)cc1 [ABP]
In vivo GTX [1, 9]: +
PWWP2B above or below the reference value [5]: + (Plus sign indicates a value above the reference value)
NR0B2 above or below the reference value [8]: + (Plus sign indicates a value above the reference value)

Cn1cnc([N+](=O)[O-])c1Sc1ncnc2nc[nH]c12 [AZA]
In vivo GTX ([1]; in vivo): +
Standard (in vivo genotoxicity designation) ([1]; in vivo): GTX
At least ⅔ genes +? [2]: GTX
Average result over three measurements [2]: GTX
Prediction (class prediction results using the method of the invention) [2]: GTX
LOC100505880 above or below the reference value [7, 10]: + (Plus sign indicates a value above the reference value)
Log2 treatment: control ratio LOC100505880 [7, 11]: 1.541 and 0.022 and 1.33
In vitro GTX [3]: +
PWWP2B above or below the reference value [5, 12]: + (Plus sign indicates a value above the reference value)
Log2 treatment: control ratio PWWP2B [5, 11]: 0.536 and 0.044 and −0.035
Ames ([6]; Ames results based on NTP data): +
NR0B2 above or below the reference value [8, 13]: + (Plus sign indicates a value above the reference value)
Log2 treatment: control ratio NR0B2 [8, 11]: 1.473 and 0.232 and 0.893

Nc1ccc(-c2ccc(N)cc2)cc1 [BZ]
In vivo GTX ([1]; in vivo): +
Standard (in vivo genotoxicity designation) ([1]; in vivo): GTX
At least ⅔ genes +? [2]: GTX
Average result over three measurements [2]: GTX
Prediction (class prediction results using the method of the invention) [2]: GTX
In vitro GTX [3]: +
Ames [6]: +
NR0B2 above or below the reference value [8]: + (key: +: Plus sign indicates a value above the reference value; −: minus sign indicates a value below the reference value)

O=P1(N(CCCl)CCCl)NCCCO1 (stereo not shown) [CP]
Standard (in vivo genotoxicity designation) ([1]; in vivo): GTX
In vivo GTX [1, 9]: +
At least ⅔ genes +? [2]: GTX
Average result over three measurements [2]: GTX
LOC100505880 above or below the reference value [7]: + (Plus sign indicates a value above the reference value)
Log2 treatment: control ratio LOC100505880 [7]: −0.031 and −0.01 and 0.139
In vitro GTX [3]: +
Prediction (class prediction results using the method of the invention) [4]: GTX
Log2 treatment: control ratio PWWP2B [5]: 0.042 and −0.221 and 0.073
Ames [6]: +

O=C(O)CCCc1ccc(N(CCCl)CCCl)cc1 [Cb]
Standard (in vivo genotoxicity designation) ([1]; in vivo): GTX
In vivo GTX [1, 9]: +
At least ⅔ genes +? [2]: GTX
Average result over three measurements [2]: GTX
LOC100505880 above or below the reference value [7]: + (Plus sign indicates a value above the reference value)
In vitro GTX [3]: +
Prediction (class prediction results using the method of the invention) [4]: GTX
Ames [6]: +
NR0B2 above or below the reference value [8]: + (Plus sign indicates a value above the reference value)

CCN(CC)N=O [DEN]
Standard (in vivo genotoxicity designation) ([1]; in vivo): GTX
In vivo GTX [1, 9]: +
LOC100505880 above or below the reference value [7]: + (Plus sign indicates a value above the reference value)
In vitro GTX [3]: +
PWWP2B above or below the reference value [5]: + (Plus sign indicates a value above the reference value)

CCN(N=O)C(N)=O [ENU]
Standard (in vivo genotoxicity designation) ([1]; in vivo): GTX
In vivo GTX [1, 9]: +
At least ⅔ genes +? [2]: GTX
Average result over three measurements [2]: GTX
In vitro GTX [3]: +
Prediction (class prediction results using the method of the invention) [4]: GTX
Log2 treatment: control ratio PWWP2B [5]: 0.01 and 0.06 and 0.11
PWWP2B above or below the reference value [5]: + (Plus sign indicates a value above the reference value)
Ames [6]: +
NR0B2 above or below the reference value [8]: + (Plus sign indicates a value above the reference value)

O=c1[nH]cc(F)c(=O)[nH]1 [FU]
In vivo GTX ([1]; in vivo): +
Standard (in vivo genotoxicity designation) ([1]; in vivo): GTX
Average result over three measurements [2]: NGTX
Prediction (class prediction results using the method of the invention) [2]: NGTX+
LOC100505880 above or below the reference value [7, 10]: + (Plus sign indicates a value above the reference value); also recorded: − (minus sign indicates a value below the reference value)
LOC100505880 above or below the reference value ([7]; HepG2, Ames positive compounds, per replicate, reference value −0.054, listed as Fu): − (minus sign indicates a value below the reference value)
Log2 treatment: control ratio LOC100505880 [7, 11]: 0.583 and −0.067
Log2 treatment: control ratio LOC100505880 [7, 14]: −0.218
In vitro GTX [3]: +
PWWP2B above or below the reference value [5, 12]: + (Plus sign indicates a value above the reference value)
Log2 treatment: control ratio PWWP2B [5, 11]: 0.256 and 0.175
Log2 treatment: control ratio PWWP2B [5, 14]: 0.008
Ames ([6]; Ames results based on NTP data): +
NR0B2 above or below the reference value [8, 13]: + (Plus sign indicates a value above the reference value); also recorded: − (minus sign indicates a value below the reference value)
NR0B2 above or below the reference value ([8]; HepG2, Ames positive compounds, per replicate, reference value −0.099, listed as Fu): − (minus sign indicates a value below the reference value)
Log2 treatment: control ratio NR0B2 [8, 11]: 0.781 and −0.197
Log2 treatment: control ratio NR0B2 [8, 14]: −0.457

Cn1c(N)nc2c3cccnc3ccc21 [IQ]
Standard (in vivo genotoxicity designation) ([1]; in vivo): GTX
In vivo GTX [1, 9]: +
At least ⅔ genes +? [2]: GTX
Average result over three measurements [2]: GTX
LOC100505880 above or below the reference value [7]: + (Plus sign indicates a value above the reference value)
In vitro GTX [3]: +
Prediction (class prediction results using the method of the invention) [4]: GTX
Log2 treatment: control ratio PWWP2B [5]: 0.188 and −0.003 and −0.052
PWWP2B above or below the reference value [5]: + (Plus sign indicates a value above the reference value)
Ames [6]: +

Nc1ccc(Cc2ccc(N)c(Cl)c2)cc1Cl [MOCA]
Standard (in vivo genotoxicity designation) ([1]; in vivo): GTX
In vivo GTX [1, 9]: +
In vitro GTX [3]: +
PWWP2B above or below the reference value [5]: + (Plus sign indicates a value above the reference value)
NR0B2 above or below the reference value [8]: + (Plus sign indicates a value above the reference value)

CCC1(c2ccccc2)C(=O)NC(=O)NC1=O [PhB]
In vivo GTX ([1]; in vivo): −
Standard (in vivo genotoxicity designation) ([1]; in vivo): NGTX
At least ⅔ genes +? [2]: NGTX
Average result over three measurements [2]: NGTX
Classification of NGTX compounds by the method of the invention (false positives) [2]: misclassification
Prediction (class prediction results using the method of the invention) [2]: NGTX
LOC100505880 above or below the reference value [7]: − (minus sign indicates a value below the reference value)
Log2 treatment: control ratio LOC100505880 [7]: −0.154 and −0.38 and −0.303
In vitro GTX [3]: +
Results in the conventional in vitro genotoxicity assays [3]: positive results
Log2 treatment: control ratio PWWP2B [5]: −0.169 and −0.272 and −0.154
PWWP2B above or below the reference value [5]: − (minus sign indicates a value below the reference value)
Ames [6]: +

O=c1c(O)c(-c2ccc(O)c(O)c2)oc2cc(O)cc(O)c12 [Que]
In vivo GTX ([1]; in vivo): −
Standard (in vivo genotoxicity designation) ([1]; in vivo): NGTX
At least ⅔ genes +? [2]: NGTX
Average result over three measurements [2]: NGTX
Prediction (class prediction results using the method of the invention) [2]: NGTX
Log2 treatment: control ratio LOC100505880 [7, 11]: 0.062 and −0.337 and −0.727
In vitro GTX [3]: +
PWWP2B above or below the reference value [5, 12]: − (minus sign indicates a value below the reference value)
Log2 treatment: control ratio PWWP2B [5, 11]: −0.206 and −0.437 and −0.113
Ames ([6]; Ames results based on NTP data): +
NR0B2 above or below the reference value [8, 13]: − (minus sign indicates a value below the reference value)
Log2 treatment: control ratio NR0B2 [8, 11]: −0.635 and −0.69 and −3.709

COc1ccc(C)cc1N [pCres]
Standard (in vivo genotoxicity designation) ([1]; in vivo): GTX
In vivo GTX [1, 9]: +
At least ⅔ genes +? [2]: GTX
Average result over three measurements [2]: GTX
In vitro GTX [3]: +
Prediction (class prediction results using the method of the invention) [4]: GTX
PWWP2B above or below the reference value [5]: + (Plus sign indicates a value above the reference value)
Ames [6]: +
NR0B2 above or below the reference value [8]: + (Plus sign indicates a value above the reference value)
